According to patent US20080003634A1, “Extended Primary Retinal Cell Culture and Stress Models, and Methods of Use” (ACUCELA, INC., priority 2003, published 2008):

How the values were obtained:
[1] = test system: NFM-expressing ganglion cells; test: A2E-induced stress, NFM-labeled ganglion cell count in mature retinal cell culture; format: cell-based, Porcine
Excerpt: (§1) Porcine eyes were obtained from Kapowsin Meats, Inc. (Graham, Wash.). Eyes were enucleated, and muscle and tissue were cleaned away from the orbit. Eyes were cut in half along their equator and the neural retina was dissected from the anterior part of the eye in buffered saline solution, according to standard methods known in the art. Briefly, the retina, ciliary body, and vitreous were dissected away from the anterior half of the eye in one piece, and the retina was gently detached from the clear vitreous. Each retina was dissociated with papain (Worthington Biochemical Corporation, Lakewood, N.J.), followed by inactivation with fetal bovine serum (FBS) and addition of 134 Kunitz units/ml of DNaseI. […]
(§2) Cultures were analyzed by counting rhodopsin-labeled photoreceptors and NFM-labeled ganglion cells using an Olympus IX81 or CZX41 microscope (Olympus, Tokyo, Japan). Twenty fields of view were counted per coverslip with a 20× objective lens. Six coverslips were analyzed by this method for each condition in each experiment. Cells that were not exposed to any stressor were counted, and cells exposed to a stressor were normalized to the number of cells in the control. […]
(§3) Immunocytochemical analysis was performed and the data analyzed as described in Examples 1 and 2.

[2] = test system: rhodopsin-expressing photoreceptors; test: EPO effect on photoreceptor survival under A2E stress in retinal cell culture; format: cell-based, Porcine; conditions: A2E 25 μM for 24 hours, no EPO; FIG. 13
Excerpt: as §1
as §2, with “exposed to either EPO or to any stressor” for “exposed to any stressor”, “a stressor with or without treatment with EPO were normalized” for “a stressor were normalized”

[3] = test system: rhodopsin-expressing photoreceptors; test: A2E-induced stress, rhodopsin-labeled photoreceptor count in mature retinal cell culture; format: cell-based, Porcine
Excerpt: as §1, §2, §3

[4] = test system: bovine retinal pigment epithelial cells; conditions: bovine RPE cells; cited from earlier work

SMILES	survival of ganglion cells ([1]; 20 μM A2E for 48 hours)	number of NFM-expressing ganglion cells versus no stress ([1]; 20 μM A2E, 24 hours, FIG. 8)	total live cell count of rhodopsin-expressing photoreceptors after stress versus before stress [2]	death of photoreceptor cells compared to photoreceptor cells not exposed to A2E ([3]; 20 μM A2E for 48 hours)	number of rhodopsin-expressing photoreceptors ([3]; varying concentrations of A2E (0, 10, 20, 40 μM), 24 hours, FIG. 7)	growth and replication of the cells [4]
CC(C=CC1=C(C)CCCC1(C)C)=CC=CC(C)=Cc1cc(C=CC=C(C)C=CC2=C(C)CCCC2(C)C)cc[n+]1CCO [A2E, N-retinylidene-N-retinyl-ethanolamine]	not adversely affected	not statistically different	much smaller	more than 90%	showed a dose response	–
c1ccc2c(c1)cc1ccc3cccc4ccc2c1c34 [benzo(a)pyrene]	–	–	–	–	–	appeared to inhibit growth and replication
